Measured values reported in ChEMBL document CHEMBL3351946, “Design and synthesis of potent antitumor water-soluble phenyl N-mustard-benzenealkylamide conjugates via a bioisostere approach” (Eur J Med Chem, 2014).
pIC50: −log10 of the molar value.

Columns and labels:
CCRF-CEM [1] = assay: Cytotoxicity against vinblastine-resistant human CCRF-CEM cells assessed as growth inhibition after 72 hrs by Alamar Blue assay; assay type: functional, cell-based
[2] = Cytotoxicity against human H1299 cells assessed as growth inhibition after 72 hrs by Alamar Blue assay; assay type: functional, cell-based; conditions: NCI-H1299, 72 h
[3] = Cytotoxicity against human HCT116 cells assessed as growth inhibition after 72 hrs by Alamar Blue assay; assay type: functional, cell-based; conditions: HCT-116, 72 h
CCRF-CEM [4] = assay: Cytotoxicity against human CCRF-CEM cells assessed as growth inhibition after 72 hrs by Alamar Blue assay; assay type: functional, cell-based
[5] = Cytotoxicity against human PC3 cells assessed as growth inhibition after 72 hrs by Alamar Blue assay; assay type: functional, cell-based; conditions: PC-3, 72 h
CCRF-CEM [6] = assay: Resistance factor, ratio of IC50 for vinblastine-resistant human CCRF-CEM cells to IC50 for human CCRF-CEM cells; assay type: functional
[7] = Cytotoxicity against human H460 cells assessed as growth inhibition after 72 hrs by Alamar Blue assay; assay type: functional, cell-based; conditions: NCI-H460, 72 h
[8] = Cytotoxicity against human H3347 cells assessed as growth inhibition after 72 hrs by Alamar Blue assay; assay type: functional, cell-based; conditions: H3347, 72 h
HT-29 = assay: Cytotoxicity against human HT-29 cells assessed as growth inhibition after 72 hrs by Alamar Blue assay; assay type: functional, cell-based; conditions: HT-29, 72 h
[9] = Cytotoxicity against human DLD1 cells assessed as growth inhibition after 72 hrs by Alamar Blue assay; assay type: functional, cell-based; conditions: DLD-1, 72 h

Row | Structure (SMILES) | pIC50 (CCRF-CEM [1]) | pIC50 [2] | pIC50 [3] | pIC50 (CCRF-CEM [4]) | pIC50 [5] | Ratio IC50 (CCRF-CEM [6]) | pIC50 [7] | pIC50 [8] | pIC50 (HT-29) | pIC50 [9]
1 | O=C(CN1CCC(N2CCCCC2)CC1)Nc1cccc(NC(=O)Nc2ccc(N(CCCl)CCCl)cc2)c1 | 5.74 | 4.89 | 5.21 | 4.52 | 4.59 | 0.06 | 4.91 | – | – | –
2 | O=C(CN1CCCC1)Nc1ccc(NC(=O)Nc2ccc(N(CCCl)CCCl)cc2)cc1 | 5.70 | 5.47 | 5.88 | 6.59 | 5.45 | 7.69 | 6.02 | 5.82 | 4.91 | 5.36
3 | O=C(CCN1CCCC1)Nc1cccc(NC(=O)Nc2ccc(N(CCCl)CCCl)cc2)c1 | 4.57 | 5.36 | 5.29 | 6.17 | 4.99 | 40.42 | 5.01 | – | – | –
4 | CN(C)CCNC(=O)c1ccc(NC(=O)Nc2ccc(N(CCCl)CCCl)cc2)cc1 | 3.97 | 4.50 | 5.25 | 6.24 | 5.20 | 186.47 | 4.50 | – | – | –
5 | O=C(Nc1ccc(N(CCCl)CCCl)cc1)Nc1cccc(C(=O)NCCN2CCCCC2)c1 | 4.55 | 4.99 | 5.26 | 6.24 | 5.34 | 49.91 | 4.89 | – | – | –
6 | CCN(CC)CCC(=O)Nc1cccc(NC(=O)Nc2ccc(N(CCCl)CCCl)cc2)c1 | 4.88 | 5.24 | 5.49 | 6.07 | 4.89 | 15.62 | 5.17 | – | – | –
7 | CN(C)CCC(=O)Nc1cccc(NC(=O)Nc2ccc(N(CCCl)CCCl)cc2)c1 | 4.84 | 5.05 | 5.48 | 6.28 | 4.87 | 27.67 | 4.77 | – | – | –
8 | CN(C)CC(=O)Nc1cccc(NC(=O)Nc2ccc(N(CCCl)CCCl)cc2)c1 | 5.57 | 4.97 | 5.02 | 6.11 | 4.72 | 3.46 | 5.06 | – | – | –
9 | O=C(CN1CCC(N2CCCCC2)CC1)Nc1ccc(NC(=O)Nc2ccc(N(CCCl)CCCl)cc2)cc1 | 4.28 | 4.84 | 5.37 | 5.94 | 5.14 | 45.8 | 4.83 | – | – | –
10 | O=c1[nH]cc(F)c(=O)[nH]1 [FLUOROURACIL] | – | – | – | – | – | – | – | 4.93 | 4.60 | 4.54
11 | O=C(CN1CCOCC1)Nc1ccc(NC(=O)Nc2ccc(N(CCCl)CCCl)cc2)cc1 | 4.74 | 4.73 | 5.18 | 5.95 | 4.80 | 16.27 | 5.32 | – | – | –
12 | CC[C@]1(O)C[C@H]2CN(CCc3c([nH]c4ccccc34)[C@@](C(=O)OC)(c3cc4c(cc3OC)N(C=O)[C@H]3[C@@](O)(C(=O)OC)[C@H](OC(C)=O)[C@]5(CC)C=CCN6CC[C@]43[C@@H]65)C2)C1 [VINCRISTINE] | 5.67 | – | – | 8.63 | – | – | – | – | – | –
13 | O=C(CCN1CCOCC1)Nc1cccc(NC(=O)Nc2ccc(N(CCCl)CCCl)cc2)c1 | 5.32 | 4.80 | 4.78 | 5.51 | 4.45 | 1.56 | 4.41 | – | – | –
14 | O=C(CN1CCCCC1)Nc1ccc(NC(=O)Nc2ccc(N(CCCl)CCCl)cc2)cc1 | 5.84 | 5.60 | 6.00 | 6.51 | 5.65 | 4.68 | 5.98 | 5.94 | 4.93 | 5.34
15 | O=C(Nc1ccc(C(=O)NCCN2CCCCC2)cc1)Nc1ccc(N(CCCl)CCCl)cc1 | 4.31 | 5.12 | 5.28 | 6.37 | 5.37 | 113.58 | 5.03 | – | – | –
16 | O=C(CCN1CCC(N2CCCCC2)CC1)Nc1cccc(NC(=O)Nc2ccc(N(CCCl)CCCl)cc2)c1 | 5.82 | 4.96 | 4.81 | 5.79 | 4.66 | 0.94 | 4.85 | – | – | –
17 | O=C(CN1CCCCC1)Nc1cccc(NC(=O)Nc2ccc(N(CCCl)CCCl)cc2)c1 | 5.88 | 5.07 | 5.12 | 5.87 | 5.00 | 0.99 | 5.25 | – | – | –
18 | CCN(CC)CCC(=O)Nc1ccc(NC(=O)Nc2ccc(N(CCCl)CCCl)cc2)cc1 | 5.08 | 4.99 | 5.51 | 6.52 | 5.61 | 27.57 | 5.74 | 5.99 | 4.71 | 5.11
19 | O=C(CCN1CCC(N2CCCCC2)CC1)Nc1ccc(NC(=O)Nc2ccc(N(CCCl)CCCl)cc2)cc1 | 3.92 | 4.44 | 4.96 | 6.14 | 4.52 | 166.17 | 4.84 | – | – | –
20 | O=C(Nc1ccc(N(CCCl)CCCl)cc1)Nc1cccc(C(=O)NCCN2CCCC2)c1 | 3.90 | 4.73 | 5.31 | 6.28 | 5.18 | 238.42 | 4.47 | – | – | –
21 | O=C(CN1CCOCC1)Nc1cccc(NC(=O)Nc2ccc(N(CCCl)CCCl)cc2)c1 | 5.88 | 4.58 | 4.89 | 5.41 | 4.45 | 0.34 | 4.71 | – | – | –
22 | O=C(CCN1CCCCC1)Nc1ccc(NC(=O)Nc2ccc(N(CCCl)CCCl)cc2)cc1 | 5.21 | 5.52 | 5.62 | – | 5.64 | – | 5.80 | 5.62 | 4.91 | 5.19
23 | CCN(CC)CC(=O)Nc1cccc(NC(=O)Nc2ccc(N(CCCl)CCCl)cc2)c1 | 5.86 | 4.93 | 5.34 | 5.70 | 4.89 | 0.69 | 5.25 | – | – | –
24 | O=C(Nc1ccc(C(=O)NCCN2CCCC2)cc1)Nc1ccc(N(CCCl)CCCl)cc1 | 3.88 | 4.73 | 5.19 | 6.25 | 5.34 | 237.2 | 4.75 | – | – | –
25 | CN(C)CCC(=O)Nc1ccc(NC(=O)Nc2ccc(N(CCCl)CCCl)cc2)cc1 | – | – | – | – | – | – | – | 5.54 | 4.63 | 5.01
26 | O=C(CCN1CCOCC1)Nc1ccc(NC(=O)Nc2ccc(N(CCCl)CCCl)cc2)cc1 | 4.63 | 4.82 | 5.15 | 5.97 | 5.01 | 22.09 | 5.40 | – | – | –
27 | O=C(CCN1CCCCC1)Nc1cccc(NC(=O)Nc2ccc(N(CCCl)CCCl)cc2)c1 | 5.22 | 5.33 | 5.45 | 6.41 | 5.24 | 15.41 | 5.10 | – | – | –
28 | O=C(CCN1CCCC1)Nc1ccc(NC(=O)Nc2ccc(N(CCCl)CCCl)cc2)cc1 | 4.77 | 5.19 | 5.54 | 6.55 | 5.46 | 61.14 | 5.99 | 5.43 | 4.85 | 4.86
29 | CC[C@]1(O)C[C@@H]2CN(CCc3c([nH]c4ccccc34)[C@@](C(=O)OC)(c3cc4c(cc3OC)N(C)[C@H]3[C@@](O)(C(=O)OC)[C@H](OC(C)=O)[C@]5(CC)C=CCN6CC[C@]43[C@@H]65)C2)C1 [VINBLASTINE] | 6.17 | – | – | 8.89 | – | – | – | – | – | –
30 | O=C(CN1CCCC1)Nc1cccc(NC(=O)Nc2ccc(N(CCCl)CCCl)cc2)c1 | 6.01 | 5.03 | 5.27 | 5.47 | 4.89 | 0.28 | 5.18 | – | – | –
